One test has as its system HEK293 cells. Briefly: Luminescent Cytotoxicity Assay (CytoTox-Glo) after transfection with GluN1 and GluN2A or GluN2B constructs. Format: cell-based, human. The note with it: for cell death: HEK293 cells; for susceptibility to NMDA receptor mediated toxicity: subject carrying the variant, based on HEK293 cell death, with GluN1, 48 h after transfection. How it is done:
HEK293 Cell Culture HEK293 cells were cultured in Dulbecco's Modified Eagle Medium (DMEM, Gibco™, 41965-039) supplement with 10% Fetal Bovine Serum (FBS, Gibco™, 10270), 1% Sodium Pyruvate (Gibco™, 11360070), 1% MEM NEAA (Gibco™, 11140035) and 0.5% Penicillin-Streptomycin (P-S; Sigma, P0781) and Passage15-25 were used for experiments.
To test the cytotoxicity of compounds according to the present invention, HEK293 cells (70-80% confluent) were transfected 24 hours after plating with expression vectors for both GluN1 and GluN2A or GluN2B, respectively (1:1; 2 μg plasmids in total per 6-cm dishes) with Lipofectamine 2000 according to manufacturer's instructions. The relative number of dead cells in the population at the indicated time points after transfection was measured with the CytoTox-Glo™ Cytotoxicity assay (Promega, G9290) according to manufacturer's instruction with minor modification. Briefly, 10% of total medium were mixed with 10 μL AAF-amino luciferin to reach a final volume at 200 μL with water, the dead cell relative luminescence units (DRLU) was measured by GloMax (Promega) in a 96 well white bottom polystyrene microplate (Corning Costar®, 3912). After all the measurements, lysis reagents have been added to the cells and 10% of lysate was used for the total cell relative luminescence units (TRLU) measurement. Cell death was calculated by the following equations: […]
In order to investigate the role of GluN2A and GluN2B in NMDA receptor mediated toxicity, the inventors have built constructs and transfected the plasmids into HEK293 cells.
In a next step, the inventors tried to assess the importance of the isoleucine and other amino acid residues in the inventive sequence motif. The inventors have built constructs containing above-mentioned mutants and transfected the plasmids into HEK293 cells.
In view of the results obtained for the GluN2A and GluN2B mutants of the inventive sequence motif in example 3, the inventors further tested the impact of naturally occurring variations in said sequence motif in the human gene pool on susceptibility towards NMDA receptor mediated toxicity. The inventors have built constructs containing above-mentioned mutants selected from the SNP database from NCBI (for GRIN2A, https://www.ncbi.nlm.nih.gov/projects/SNP/snp_ref.cgi?showRare=on&chooseRs=coding&g o=Go&locusId=2903, and for GRIN2B, https://www.ncbi.nlm.nih.gov/projects/SNP/snp_ref.cgi?showRare=on&chooseRs=coding&g o=Go&locusId=2904) and transfected the plasmids into HEK293 cells.

Test [1] relates to primary mouse hippocampal neurons. Briefly: Neuronal death assessment after rAAV-mediated expression of polypeptides. The test is classed as cell-based. To be noted: rAAV infection on DIV3, fixed on DIV17, Hoechst staining, polypeptide fused to HA tag and GPI anchor. The procedure:
Primary mouse hippocampal were prepared and maintained as known to the skilled person. Briefly, hippocampi from P0 C57Bl/6N mice were dissociated and plated at a density of […] in Growth Medium (GM), consisting of Neurobasal A medium (Gibco™, 10888022), 2% serum free B27™ Supplement (Gibco™, 17504044), 1% rat serum (Biowest, S2150), 0.5 mM L-Glutamine (Sigma, G7513) and 0.5% P-S. Cytosine P-D-arabinofuranoside (AraC; Sigma, C1768; 2.8 μM) was added on DIV3 to prevent the proliferation of glial cells. From DIV8, half of the medium was replaced by GM without Rat serum every 48 h until being used for experiments. […]
Neurons were fixed in 4% paraformaldehyde with 4% sucrose in PBS for 15 min followed with Hoechst staining. […] Cell death is analyzed by Cell Profiler and Cell Analyzer software.
In a next step, the inventors assessed whether the inventive sequence motif on its own is sufficient to induce NMDA receptor mediated toxicity. […] Neurons were fixed on DIV17, stained with Hoechst and cell death was quantified.

Where [2] appears, read: combined expression with GluN1, 48 h after transfection.

In the case of “GluN2B-I2A2AH: GluN2B with substitutions I868A, I872A and A876H”, in the test with HEK293 cells (setting [2]), the cell death result is reported as “essentially abrogated any toxic effect”.

As for “GluN2A: wild type rat GluN2A (UniProtKB-Q00959) comprising canonical sequence SEQ ID NO:1”, the cell death result in the test with HEK293 cells (setting [2]) is recorded as “induced cell death”. Besides, the “susceptibility to NMDA receptor mediated toxicity” value (“susceptibility” below) in the test on HEK293 cells is recorded as “regular susceptibility”.

In the case of “GluN2A-IAHA: GluN2A with substitutions I867A, I871A and H875A (SEQ ID NO:21)”, in the test on HEK293 cells (setting [2]), the cell death entry is recorded as “at least reduced levels of toxicity”.

As to “GluN2A (I867M): GluN2A with naturally occurring substitution I867M”, in the test on HEK293 cells (setting [2]), the cell death result is listed as “also toxic”. In addition, the “susceptibility” value in the test with HEK293 cells is listed as “increased susceptibility”.

For “GluN2A (I876N): GluN2A with naturally occurring substitution I876N”, the cell death entry in the test on HEK293 cells (setting [2]) was “also toxic”. The “susceptibility” value is “increased susceptibility” in the test on HEK293 cells and “significantly increased susceptibility” with HEK293 cells (listed as SEQ ID NO:6).

In the case of “GluN2B-12A2: GluN2B with substitutions I868A and I872A (SEQ ID NO:21)”, the cell death result with HEK293 cells (setting [2]) is listed as “essentially abrogated any toxic effect”.

Consider “GluN2A-13A3: GluN2A with substitutions I863A, I867A and I871A (SEQ ID NO:3)”, for which the cell death result in the test on HEK293 cells (setting [2]) is “still show some toxic properties”; in the test with HEK293 cells (combined expression with GluN1, 48 h after transfection, listed as GluN2A SEQ ID NO:3) it was “at least reduced levels of toxicity”.

With “GluN2B: wild type rat GluN2B (UniProtKB-Q00960) comprising canonical sequence SEQ ID NO:7”, in the test with HEK293 cells (setting [2]), the cell death result is “induced cell death”. The “susceptibility” value in the test with HEK293 cells was “regular susceptibility”.

With “SEQ ID NO:10: mutant GluN2A derived polypeptide comprising SEQ ID NO:2, fused to HA tag and GPI anchor (TGVCSDRPGLLFSISRGAYSCAHGVHIEEKKKS; GluN2A core motif mutated with 2 Ile residues mutated to Ala residues plus flanking regions)”, the cell death entry in test [1] was “not able to induce cell death”; in test [1] (listed as SEQ ID NO: 10), “greatly reduces the cell death levels to approx. the levels of untransfected control”.

Regarding “GluN1: wild type rat GluN1 (UniProtKB-P35439), control when expressed alone”, the cell death entry in the test with HEK293 cells (transfected alone (control), 48 h after transfection) is on record as “neither GFP nor GluN1 alone (both serving as controls) could induce cell death”.

For the substance “GluN2B (H873R): GluN2B with naturally occurring substitution H873R”, the “susceptibility” value in the test on HEK293 cells is “decreased susceptibility”.

On to “GluN2A (S869R): GluN2A with naturally occurring substitution S869R”, for which, in the test with HEK293 cells (setting [2]), the cell death entry is “also toxic”. Further, the “susceptibility” value in the test on HEK293 cells is “regular susceptibility”.

Regarding “GluN2A-I2A2: GluN2A with substitutions I867A and I871A (SEQ ID NO:2)”, the cell death entry with HEK293 cells (setting [2]) is reported as “still show some toxic properties”; with HEK293 cells (combined expression with GluN1, 48 h after transfection, listed as GluN2A SEQ ID NO:2), “at least reduced levels of toxicity”.

(Values after patent publication US20230340060A1, “NOVEL MEANS TO PREDICT AND MANIPULATE NMDA RECEPTOR-MEDIATED TOXICITY” (FundaMental Pharma GmbH, priority 2020, published 2023).)
